Results reported in patent EP1398031A1, “Use of 6-amino-quinoline-5,8-quinones and nucleic acids associated with senescence for the treatment of tumors” (Max-Planck-Gesellschaft zur Förderung der Wissenschaften …, priority 2002, dated 2004).

What was measured:
[1] = system: cdk-inhibitors p27 and p15; assay: induction of cdk-inhibitors (data not shown); type: cell-based; conditions: LY-treatment
HDF [2] = assay: detection of DNA-synthesis (BrdU incorporation); type: cell-based, human; conditions: 1 µM LY; synchronized HDF; 10 µM BrdU for 6 hours
Experimental: Cells were plated on cell locate glass grids (Eppendorf) and labeled for 6 hours using the 5'-bromo-2'-deoxy-uridine labelling and detection kit I (Roche Applied Sciences). After staining with a FITC-labeled anti-BrdU-antibody, positive cells were detected by fluorescence microscopy.

[3] = target: soluble guanylate cyclase; conditions: competitive inhibitor of soluble guanylate cyclase; Fleisch et al., 1984; cited from earlier work
HDF [4] = assay: FACS analysis of cell cycle after release from confluence; type: cell-based, human; conditions: HDF synchronized by confluence, released by trypsinization; 1 µM LY, 24 and 36 hours
Experimental: (§1) Cell samples (both adherent and floating cells) were harvested by trypsinization, washed once with PBS and fixed in 70 % ethanol for > 2 hours on ice, washed once with PBS and incubated for 30 minutes at room temperature in staining solution containing 50 µg/ml of propidium iodide, 0.2 mg/ml of RNase A and 0.1 % (v/v) Triton X-100 in PBS. Quantification of apoptotic cells was performed using the Annexin V-FITC apoptosis detection kit (Becton Dickinson). Samples were analyzed with a FACScan unit (Becton Dickinson). 1×10^4 cells were analyzed for each assay. Quantitation was performed using single histogram statistics.

p53 protein in HDF = assay: Western blot analysis, p53; type: cell-based, human; conditions: after treatment with LY
Experimental: (§2) Cells were lysed in a lysis buffer composed of 50 mM HEPES pH 7.5, 150 mM NaCl, 1 mM EGTA, 10 % glycerol, 1 % Triton X-100, 100 mM NaF, 10 mM Na4P2O7, 1 µM PMSF, and 1 µM Na3VO4. Protein concentration in whole lysates was determined using a Bradford assay (BioRad). 20 µg of lysates diluted with Laemmli-buffer were separated on 12 % SDS-polyacrylamide gels and transferred to Immobilon-P membranes (Millipore). For detection of pRb, separation was performed on a 7-12 % gradient gel. Antibodies against p53 (Pab 1801), p21 (c-19), p16 (c-20) and α-Tubulin (TU-02) were purchased from Santa Cruz Biotechnology. Anti-pRB antibodies (G3-245) were from BD PharMingen. Enhanced chemiluminescence generated by horse radish peroxidase-coupled secondary antibodies was detected with a CF440 imager (Kodak/Perkin Elmer).

HeLa = assay: cell death / apoptosis (histone H2B-eGFP chromatin morphology, sub-G1 flow cytometry); type: cell-based, human
Experimental: as §1
(§3) For phase contrast and β-gal staining an Axiovert 25 microscope (Zeiss) equipped with a HyperHAD CCD camera (Sony) and ImageBase software (Kappa) was used. In vivo expression of histone-H2B-eGFP was documented with a Photometrics CooISNAP-HQ CCD camera (Roper Scientific) on an inverted Axiovert 200M microscope (Zeiss) using the Metamorph software (Universal Imaging).

[5] = system: p21 mRNA and protein of p53-/- HCT116; assay: Northern and Western blot analysis of p21; type: cell-based, human; conditions: 1.5 µM LY
Experimental: (§4) RNA was isolated using the RNAgents kit (Promega). A Northern probe directed against the 3'-untranslated region of ELF1 α mRNA was generated by PCR using an EST as template and subsequent gel purification. The p21 probe corresponds to the open reading frame of p21. A probe corresponding to the 5'-region of sGC-β3 was amplified from HDF-cDNA and subcloned. Hybridizations were performed in QuickHyb, following the manufacturer's instructions (Stratagene).
as §2

HEK293 = assay: cell death (data not shown); type: cell-based, human; conditions: treatment with LY, no arrest
HCT116 = assay: proliferation assay (cell counting); type: cell-based, human
Experimental: (§5) Cells were seeded in equal numbers in 6-well plates the day before addition of LY in order to ensure uniform cell layers at the start of the experiments. Cells were treated in triplicates with daily exchange of medium containing drug or drug-free vehicle. For each time point cells were trypsinized and cell proliferation was assessed using a Z1 Counter (Coulter).

[6] = system: p53-deficient HCT116 cells; assay: proliferation assay (cell counting); type: cell-based, human; conditions: after LY addition
Experimental: as §5

[7] = system: p21-deficient HCT116 colorectal cancer cells; assay: proliferation assay (cell counting); type: cell-based, human
Experimental: as §5

DLD1 = assay: proliferation assay (cell counting); type: cell-based, human; conditions: after addition of LY
Experimental: as §5

MCF7 = assay: proliferation assay (cell counting); type: cell-based, human; conditions: after addition of LY
Experimental: as §5

HDF [8] = assay: cGMP assay (competitive immunoassay on cell lysates); type: cell-based; conditions: Homo sapiens, 1 µM LY, 100 µM SNP for 2 hours, read-out: inhibition of the SNP-induced synthesis of cGMP
Experimental: Cells of early and late passages were seeded in equal numbers in 6-well plates. 24 hours later SNP (Sigma) was dissolved in complete medium and added to cells to a final concentration of 100 µM. Control cells received the same volume of drug-free medium. After 2 hours of incubation, medium was removed and cells were lysed by addition of 400 µl 0.1 M HCl per well for 10 minutes. cGMP concentration in lysates was determined using a specific competitive immunoassay according to the manufacturer's instructions (Sigma). A plate reader (LAMBDA E, MWG-Biotech) was used to detect the signal at 405 nm. Experiments were performed in triplicates with all samples measured twice.

HDF [9] = assay: SA-β-gal staining and morphology; type: cell-based, human; conditions: early passage HDF treated with LY
Experimental: Cells were fixed by incubation in 0.5 % glutaraldehyde in PBS for 5 minutes at room temperature and stained for SA-ß-galactosidase at pH 6.0 as described by Dimri et al., 1995.
as §3

p16INK4A in HDF = assay: Western blot analysis, p16; type: cell-based, human; conditions: 48 hours of treatment with LY
Experimental: as §2

pRb in HDF = assay: Western blot analysis, pRb phosphorylation status; type: cell-based, human
Experimental: as §2

[10] = system: p21 protein in HCT116 cells; assay: Western blot analysis, p21; type: cell-based, human
Experimental: as §2

[11] = system: p16INK4A-deficient mouse embryo fibroblasts (MEF); assay: proliferation (data not shown); type: cell-based; conditions: LY
Experimental: as §5

HDF [12] = assay: proliferation assay (cell counting); type: cell-based
Experimental: as §5

[13] = system: NIH3T3-L1 cells expressing the K1-mutant; assay: proliferation assay (cell counting); type: cell-based, mouse; conditions: 1.5 µM LY; most cells
Experimental: as §5

[14] = system: NIH3T3-L1 cells expressing wildtype SV40 large T antigen; assay: proliferation assay, morphology and annexin V staining; type: cell-based, mouse; conditions: 1.5 µM LY
Experimental: as §1, §5

p21 mRNA in HDF = assay: Northern blot analysis of p21 mRNA; type: cell-based, human; conditions: 0.2 µg/ml adriamycin
Experimental: as §4

O=C1C(Nc2ccccc2)=CC(=O)c2ncccc21 [LY, 6-Anilino-quinoline-5,8-quinone]
induction of p27 and p15 [1]: did not lead to induction | DNA synthesis as determined by BrdU incorporation (HDF [2]): complete inhibition of DNA synthesis | IC50 [3]: 2000 nM | entry into S-phase (HDF [4]): almost completely blocked the entry into S-phase | level of p53 protein (p53 protein in HDF): did not increase | chromatin morphology (HeLa; HeLa expressing histone H2B-eGFP, 2 µM LY for 48 hours): chromatin condensation | cells with a sub-G1 DNA content (HeLa; HeLa treated for 60 hours with LY, flow-cytometry): substantial increase of cells with a sub-G1 DNA content | cell fate (HeLa; treatment with LY, no arrest, data not shown): underwent cell death | levels of p21 mRNA and protein [5]: induced with kinetics similar to those observed in HDF | cell fate (HEK293): underwent cell death | cell proliferation (HCT116; after addition of LY): complete cessation of cell proliferation | cell proliferation (HCT116; wild-type HCT116, after 5 days of LY treatment): complete cessation of proliferation | cell proliferation [6]: complete block of proliferation | cell-cycle inhibition ([7]; LY vs vehicle (DMSO)): resistant to cell-cycle inhibition | cell proliferation ([7]; after 5 days of LY treatment): regained exponential proliferation | cell proliferation (DLD1): complete cessation of cell proliferation | cell proliferation (MCF7): complete cessation of cell proliferation | inhibition at 1 µM (HDF [8]): 60% | signs of senescence (morphology, SA-β-galactosidase) (HDF [9]): morphological changes characteristic of senescence and by SA-β-galactosidase staining at pH 6 | induction of p16INK4A (p16INK4A in HDF): not induced | ratio of phosphorylated to hypo-phosphorylated pRb (pRb in HDF; 6 hours after addition of LY): clearly shifted towards the hypo-phosphorylated form | pRb phosphorylation status (pRb in HDF; 19 hours after addition of LY): almost completely hypo-phosphorylated | p21 protein ([10]; 1.5 µM LY): induction of p21 | cell proliferation [11]: inhibited | inhibition at 0.25 µM (HDF [12]; Homo sapiens, HDF, 72 h, read-out: reduction in proliferation): 50% | inhibition of proliferation (HDF [12]; early passage fibroblasts, 1 µM LY): completely inhibit proliferation | proliferation after extended treatment (HDF [12]; treatment for 8 days): stable inhibition of proliferation | toxicity after extended treatment (HDF [12]; treatment for 8 days): did not cause any obvious toxicity | reversibility of inhibition of proliferation (HDF [12]; treatment period of more than 2 days, 1 µM LY): irreversible | cell proliferation [13]: inhibition of proliferation | cell fate [14]: underwent apoptosis

COc1cccc2c1C(=O)c1c(O)c3c(c(O)c1C2=O)C[C@@](O)(C(=O)CO)C[C@@H]3O[C@H]1C[C@H](N)[C@H](O)[C@H](C)O1 [adriamycin]
p21 mRNA (p21 mRNA in HDF): induction of p21 mRNA | p21 protein ([10]; wildtype HCT116 only, adriamycin at 0.2 µg/ml for 8 hours): induction of p21 protein
